Assay results from patent US9682928B2 (NeuroPro Therapeutics, Inc., priority 2009, dated 2017).
Values joined by “and” are separate entries in the source; they are usually repeats but may differ in a detail not shown here. Equal entries are not always repeated. “Also recorded” adds a separate entry of the source.

Tests used:
[1] = Blood levels in rat following IP administration; format: in vivo; conditions: for Concentration of NTP-2000 (bumetanide) in rat blood: after NTP-2024 100 mg/kg IP
mouse [2] = conditions: literature data; cited from earlier work
primate = experiment: Acute primate seizure models; conditions: in vivo
Source text: FIG. 13 depicts epileptiform spikes and bursts generated using software for the automatic quantification epileptiform activity. FIG. 13A depicts after-discharge activity that was elicited by 4 seconds of electrical stimulation to primate sensory cortex. The software developed by Haglund and Hochman (2007) finds the envelope around a burst of spikes and calculates the duration of the burst, the number of spikes within the burst, and the average spike amplitude of all spikes comprising the burst.
FIG. 13B depicts a typical spike generated by an acute bicuculline focus in primate motor cortex. The bicuculline model generates epileptiform activity that is similar to spontaneous interictal spiking in human subjects. Analysis of the data by the software identifies the time of occurrence of each spike and its peak-to-peak amplitude. This software can automatically process entire data sets consisting of hours of recorded data from multiple traces and generate an output of the data. Statistical analysis of data sets from multiple experiments can then be used to analyze the effects of various treatments (e.g., compounds that suppress epliptiform activity). See Haglund and Hochman (2007) “Imaging of Intrinsic Optical Signals in Primate Cortex during Epileptiform Activity.” Epilepsia 48(Suppl. 4): 65-74; See also Haglund and Hochman (Feb. 23, 2005) J. Neurophysiol. 94: 907-918.

NKCC1 = target: T1, NKCC1 (Homo sapiens, UniProt P55011); experiment: NKCC1 Rb+ influx assay in human adult skin fibroblasts; format: cell-based
T1 construct: endogenous in cells; host or cells: human adult skin fibroblasts (primary culture)
Protocol: The protocol may be done in accordance with Panet and Alan The Journal of Cell Biology, Volume 114, Number 2, July 1991 337-342. Human adult skin fibroblasts were seeded at 3 concentrations: 3000/5000/10 000 on 96 well culture plates with DMEM supplemented with 10% FCS and 4 mM glutamine (37° C., CO2). Medium was replaced with DMEM supplemented with 0.2% FCS, 4 mM glutamine and 20 mM HEPES (37° C., CO2). The NKCC assay may be performed according the standard operating procedure as described in Chassande, et al. (1988) “The Na+/K+/CI^− cotransport in C6 glioma cells.” Eur. J. Biochem. 171: 425-433.
This allows for the administration of the compounds described herein described herein without unwanted diuretic side effects.

in vivo [3] = conditions: dog
in vivo [4] = conditions: rat
mouse [5] = experiment: Formalin test (acute/early and late phase) in mice; format: in vivo
Protocol: The formalin test was performed according to the method of Tjølsen, et al. (October 1992) “The formalin test: an evaluation of the method.” Pain 51(1): 5-17. An injection of 0.5% formalin is made into the plantar region of the right hind paw of a mouse. This elicits a distinct behavioral profile in response to the formalin injection characterized by the mouse licking the affected paw. The behavior is characteristically biphasic in nature. For example, immediately following the injection the mouse intensely licks the paw for approximately 5-10 minutes (“min.”) This initial behavior was considered phase 1 (acute) and is thought to be mediated primarily by chemical activation of local C-fibers. The acute phase is followed by a brief latent (usually <5 min) period where there is little or no behavioral activity. A more prolonged (about 20 to 30 min) period of licking then ensues which constitutes phase 2 of the response (late phase). See e.g., Tjølsen, et al. (Feb. 7, 1991) “Antinociceptive effect of paracetamol in rats is partly dependent on spinal serotonergic systems. Eur J Pharmacol. 193(2): 193-201 and Tjølsen, et al. (June 1991) Lesions of bulbo-spinal serotonergic or noradrenergic pathways reduce nociception as measured by the formalin test. Acta Physiol Scand. 142(2): 229-36, the disclosures of each of which are hereby incorporated by reference in its entirety.
It is in these tubes that mice are later observed for the licking activity for the duration of the experiment. Following the conditioning, the test substance was administered i.p. in a dose equivalent to the MES ED50 and the mouse returned to its home tube. At the TPE of the drug, the formalin is injected subdermally into the plantar surface of the right hind foot. It is given in a volume of 20 μl with a 27 gauge stainless steel needle attached to a Hamilton syringe. The bevel of the needle was placed facing down toward the skin surface. […] The cumulative length of licking for each 2-min time period was measured. […] Animals are euthanized following the conclusion of the experiment.
Area under the curve (AUC) and subsequent percent of control for drug-treated animal groups is determined using the GraphPad Prism Version 3.03. Total AUC was calculated for both the test and control groups for both the acute and inflammatory phases. The AUC for individual animals for each phase was also calculated and converted to percentage of total AUC of control. The average and S.E.M. for both the drug treated and control percentages were calculated and tested for significant difference.

Male CD-1 mice = experiment: Chung (SNL) neuropathic pain study in mice; format: in vivo, mouse; conditions: high dose group (180 mg/kg NTP-2014; 100 mg/kg NTP-2026; gabapentin 100 mg/kg, i.p.)

T1 sequence (P55011 whole entry): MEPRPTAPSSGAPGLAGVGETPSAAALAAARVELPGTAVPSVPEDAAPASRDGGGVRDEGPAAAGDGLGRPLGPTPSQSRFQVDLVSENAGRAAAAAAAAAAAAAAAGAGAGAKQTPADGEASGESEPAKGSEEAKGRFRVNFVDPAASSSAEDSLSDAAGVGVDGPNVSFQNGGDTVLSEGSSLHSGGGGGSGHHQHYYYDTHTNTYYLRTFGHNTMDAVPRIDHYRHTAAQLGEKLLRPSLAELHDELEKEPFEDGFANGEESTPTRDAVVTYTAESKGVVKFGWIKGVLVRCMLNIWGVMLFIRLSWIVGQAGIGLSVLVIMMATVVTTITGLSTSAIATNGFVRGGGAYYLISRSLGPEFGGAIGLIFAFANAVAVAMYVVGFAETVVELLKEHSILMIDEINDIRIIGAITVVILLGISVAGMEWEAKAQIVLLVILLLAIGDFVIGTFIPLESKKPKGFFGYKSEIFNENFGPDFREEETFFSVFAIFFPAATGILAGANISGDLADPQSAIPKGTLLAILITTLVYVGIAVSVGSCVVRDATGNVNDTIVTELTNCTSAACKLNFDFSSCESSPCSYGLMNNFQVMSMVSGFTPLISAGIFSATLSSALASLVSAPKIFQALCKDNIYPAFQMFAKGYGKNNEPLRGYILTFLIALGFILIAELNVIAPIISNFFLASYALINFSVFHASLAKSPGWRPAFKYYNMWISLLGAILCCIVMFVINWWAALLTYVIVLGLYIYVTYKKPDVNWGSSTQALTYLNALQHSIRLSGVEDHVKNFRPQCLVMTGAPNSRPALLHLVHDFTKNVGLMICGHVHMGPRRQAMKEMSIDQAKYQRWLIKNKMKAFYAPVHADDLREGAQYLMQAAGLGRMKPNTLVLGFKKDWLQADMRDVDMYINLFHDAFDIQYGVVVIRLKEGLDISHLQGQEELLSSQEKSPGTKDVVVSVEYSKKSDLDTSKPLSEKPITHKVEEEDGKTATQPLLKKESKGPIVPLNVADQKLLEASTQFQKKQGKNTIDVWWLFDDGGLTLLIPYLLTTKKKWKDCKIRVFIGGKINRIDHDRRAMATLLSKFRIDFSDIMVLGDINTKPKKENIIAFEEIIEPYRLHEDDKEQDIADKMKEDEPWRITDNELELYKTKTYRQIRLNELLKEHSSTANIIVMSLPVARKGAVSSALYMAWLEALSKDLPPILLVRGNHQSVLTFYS

With CCCCNc1cc(C(=O)O)cc(S(N)(=O)=O)c1Oc1ccccc1 [Bumetanide, reference compound] as the compound, how does the “Effect of inhibitor pre-treatment on exposures and half-life” value ([1]; rats) read?
The value was “with inhibitor increased bumetanide exposures and half-life;”.

What about the “Activity in early phase formalin paw test” value (mouse [2]) of the same compound?
Its value is “has little”.

And the “Activity in late phase formalin paw test” value (mouse [2])?
Its value is “is active in late phase”.

What about the “Suppression of epileptiform activity” value (primate) of the same compound?
Its value is “significantly more than furosemide”.

With CCCCN(CCCC)c1cc(C(=O)O)cc(S(N)(=O)=O)c1Oc1ccccc1 [NTP-2014, 3-Aminosulfonyl-5-N,N-dibutylamino-4-phenoxybenzoic acid] as the compound, how does the “Inhibition of NKCC1 in the presence of a co-transporter activating mitogen (FGF)” value (NKCC1) read?
The value was “did not inhibit”.

What about the “Inhibition of NKCC1 chloride transport” value (NKCC1; primary cell cultures) of the same compound?
The value was “no inhibition”.

And the NOAEL at 14 day (in vivo [3])?
The NOAEL at 14 day was 4.5 mg/kg.

And the NOAEL at 14 day (in vivo [4])?
The NOAEL at 14 day was 500 mg/kg.

With CCCCNc1cc(C(=O)NN2CCOCC2)cc(S(N)(=O)=O)c1Oc1ccccc1 [NTP-2024, N-Morpholinyl 3-Aminosulfonyl-5-N-butylamino-4-phenoxybenzamide] as the compound, how does the “Concentration of NTP-2024 in rat blood” value ([1]; NTP-2024 100 mg/kg IP, PBx pretreated, 15 m) read?
Its value is 3939.86 ng/mL and 4358.32 ng/mL and 6418.34 ng/mL.

And the “Concentration of NTP-2000 (bumetanide) in rat blood” value ([1]; PBx pretreated, 5 m)?
Its value is 4.155 ng/mL and 3.804 ng/mL and 3.493 ng/mL.

What about the “Concentration of NTP-2000 (bumetanide) in rat blood” value ([1]; PBx pretreated, 30 m) of the same compound?
Its value is 13.3456 ng/mL and 10.0076 ng/mL and 8.433 ng/mL.

What about the “Concentration of NTP-2000 (bumetanide) in rat blood” value ([1]; PBx pretreated, 1 h) of the same compound?
The value was 12.2513 ng/mL and 9.158 ng/mL and 8.065 ng/mL.

And the “Concentration of NTP-2000 (bumetanide) in rat blood” value ([1]; PBx pretreated, 2 h)?
Its value is 15.0994 ng/mL and 8.16 ng/mL and 8.949 ng/mL.

And the “Degradation to bumetanide in the blood” value ([1]; i.p., rats)?
The value was “does not readily degrade to bumetanide”.

What about the “Concentrations in blood and in brain tissue” value ([1]; rats pretreated with inhibitor) of the same compound?
The value was “Rats pretreated with inhibitor demonstrated high concentrations”.

And the “Suppression of epileptiform activity” value (primate)?
Its value is “efficacious in suppressing epileptiform activity”.

And the “Decrease in pain, Formalin Paw Test (Mice) - Late Phase” value (mouse [5]; 346 μmol/kg, 150 mg/kg, p < 0.01)?
The value was 150 mg/kg; >80%.

And the “Decrease in pain, Formalin Paw Test (Mice) - Early Phase” value (mouse [5]; 346 μmol/kg, 150 mg/kg, p < 0.05)?
Its value is 150 mg/kg; ~40%;.

What about the “% of Control, Acute” value (mouse [5]; 150 mg/kg i.p., mice) of the same compound?
The value was 58.55%.

And the “% of Control, Late Phase” value (mouse [5]; 150 mg/kg i.p., mice)?
Its value is 12.54%.

What about the “Treated (AUC of licking time), Acute” value (mouse [5]; 150 mg/kg i.p., mice) of the same compound?
The value was 80.03.

What about the “Treated (AUC of licking time), Late Phase” value (mouse [5]; 150 mg/kg i.p., mice) of the same compound?
The value was 76.39.

Which Sedation (Male CD-1 mice) does the source give for CCCCNc1cc(C(=O)N(C)CCCN(C)C)cc(S(N)(=O)=O)c1Oc1ccccc1 [NTP-2026, N-(3-(Dimethylamino)propyl)-N-methyl 3-Aminosulfonyl-5-N-butylamino-4-phenoxybenzamide] here?
The Sedation was “Some minor sedation; also recorded: tactile hypersensitivity. Some minor”.
